pEC50: −log10 of the molar value. Where two headings read alike, the source gives them in different places. Each block holds one molecule with its values, some of them ahead of it.
Biological target: T1, human MCR4 receptor (Homo sapiens, UniProt P32245)
T1 construct: expressed in transfected cells
Assay: MCR4 improved functional assay (Protocol E): CHO-K1-MC4R-CRE-β-lactamase reporter
Format: cell-based
Text: (ii) MCR5 Standard Functional Assay Methodology and MCR4 Improved Functional Assay Methodology [Assay Protocol D and E Respectively] […] These cell lines were engineered using protocols akin to those outlined by Zaccolo et al (Zaccolo, M., (2000) Nature, 2(1); 25-29). Compound-induced activation of the MCR5 or MCR4 receptors in these two cell lines stimulated the production, and intracellular accumulation, of the enzyme β-lactamase. The quantity of β-lactamase enzyme produced was directly proportional to the degree to which the test compound activated the MCR5 or MCR4 receptors present on these cells and was quantified using the P-lactamase gene reporter analysis kit that is commercially available from Invitrogen Life Technologies. An in-depth description of this technology and assay protocols are available from the Invitrogen web site (www.invitrogen.com). The protocol listed below provides a summary of that assay methodology. The quantity of β-lactamase enzyme produced by compound-induced activation of the MCR5 or MCR4 receptors expressed in these cell lines was quantified using a LjI Biosystems Analyst™ HT 96.384 plate reader set to excite at a wave length of 405 nm, and measure the energy emitted at wave lengths of 450 nm and 530 nm. Cellular responses were quantified by dividing the measured energy emitted at a wavelength of 450 nm by the measured energy emitted at a wavelength of 530 nm. […] CCF4-AM was dissolved in 100% DMSO to give a final solution concentration of 1 mM. This solution was termed Solution A. Probenecid was dissolved in 200 mM NaOH to give a final solution concentration of 200 mM. This solution was termed Solution D. Composition of the β-lactamase assay dye solution: for 1072 μL of assay dye solution combine: 12 μL of Solution A, 60 μL of Solution B, 925 μL of Solution C and 75 μL of Solution D. […] Cells were grown in T225 vent cap flasks containing 50 ml of growth medium and maintained in a cell incubator at a temperature of 37° C. and in an environment containing 5% CO2. The composition of the growth medium for the CHO-K1-MC5R-CRE-β-lactamase was 90% v/v DMEM supplemented with; Glutamax-1, 25 mM HEPES, 10% v/v foetal calf serum (FCS), 1 mM sodium pyruvate, 0.1 mM non essential amino acids and 800 μg/ml genetic in. For the CHO-K1-MC4R-CRE-β-lactamase this growth media was further supplemented with […] Zeocin. Cells were harvested when they reached 80-90% confluency by first removing the existing growth medium and then washing with PBS that had been pre-warmed to a temperature of 37° C. This PBS was then removed and 5 ml of cell dissociation fluid added to the flask. These cells were incubated for 5 minutes in a cell incubator set at a temperature of 37° C. and in an environment containing 5% CO2 to detach the cells. When cells were detached, pre-warmed growth media was added, the cells re-suspended and mixed gently to achieve a single cell suspension by pipetting. This cell suspension was then used for experimentation, or transferred into a new T225 flask to perpetuate the cell culture. […] For each assay the cell plates were then retuned to a cell incubator maintained at a temperature of 37° C. and in an environment containing 5% CO2 overnight before performing the assay on the second assay day. […] For the MCR4 improved functional assay methodology the solution of cyclohexamide was not added. Subsequently, 10 μL of the test compound solution was transferred to the assay plate. The assay plate was then transferred to a cell incubator, set at 37° C. and in an environment containing 5% CO2, and left for 4 hours for the MCR4 improved assay methodology, or 5 hours for the MCR5 standard assay methodology. After this incubation period the plate was removed from the incubator, 10 μL of the […] assay dye solution was added to each well and then the plate returned to the cell incubator.

[1] = Protocols C or E, read-out: functional potency at the MC4 receptor (EC50)

T1 sequence (P32245 whole entry): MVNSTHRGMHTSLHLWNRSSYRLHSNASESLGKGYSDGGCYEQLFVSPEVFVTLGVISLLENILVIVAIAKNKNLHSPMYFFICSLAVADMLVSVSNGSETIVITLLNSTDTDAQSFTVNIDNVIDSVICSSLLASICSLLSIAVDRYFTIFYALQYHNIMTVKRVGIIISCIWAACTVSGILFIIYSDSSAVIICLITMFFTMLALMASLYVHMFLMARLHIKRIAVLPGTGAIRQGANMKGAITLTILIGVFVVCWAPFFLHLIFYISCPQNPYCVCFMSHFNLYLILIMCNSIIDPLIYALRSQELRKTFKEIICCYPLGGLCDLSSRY

SMILES: C[C@@H]1CN(C(=O)[C@@H]2CN(C(C)(C)C)C[C@H]2c2ccc(F)cc2F)C[C@H](C)[C@@]1(O)c1ccccc1 [Example 1, (3R,4R,5S)-1-{[(3S,4R)-1-tert-Butyl-4-(24-difluorophenyl)pyrrolidin-3-yl]carbonyl}-3,5-dimethyl-4-phenylpiperidin-4-ol]
pEC50 [1]: > 8.00

SMILES: C[C@@H]1CN(C(=O)[C@@H]2CN(C(C)(C)C)C[C@H]2c2ccc(F)cc2F)C[C@H](C)[C@@]1(O)c1ccccc1.Cl [Example 5, (3R,4R,5S)-1-{[(3S,4R)-1-tert-Butyl-4-(2,4-difluorophenyl)pyrrolidin-3-yl]carbonyl}-3,5-dimethyl-4-phenylpiperidin-4-ol hydrochloride]
pEC50 [1]: > 8.00
pEC50 (Table 6, read-out: MCR4 EC50): 8.02

SMILES: CC(C)N1C[C@@H](C(=O)N2C[C@@H](C)[C@](O)(c3ccccc3)[C@@H](C)C2)[C@H](c2ccc(F)cc2F)C1.Cl [Example 6, (3R,4R,5S)-1-{[(3S,4R)-4-(2,4-Difluorophenyl)-1-isopropylpyrrolidin-3-yl]carbonyl}-3,5-dimethyl-4-phenylpiperidin-4-ol hydrochloride]
EC50 (MCR4 EC50 (nM), Table 6): 19 nM
pEC50 (functional potency at the MC4 receptor (EC50), Protocols C or E): > 7.30

SMILES: C[C@@H]1CN(C(=O)[C@@H]2CNC[C@H]2c2ccc(F)cc2F)C[C@H](C)[C@@]1(O)c1ccc(F)cc1.Cl [Example 12, (3R,4R,5S)-1-{[(3S,4R)-4-(2,4-difluorophenyl)pyrrolidin-3-yl]carbonyl}-4-(4-fluorophenyl)-3,5-dimethylpiperidin-4-ol hydrochloride]
pEC50 [1]: > 6.82
pEC50 (Table 6, read-out: MCR4 EC50): 7.12

Continued, values first:

pEC50 [1]: > 7.30
pEC50 (Table 6, read-out: MCR4 EC50): 7.57
SMILES: C[C@@H]1CN(C(=O)[C@@H]2CN(C(C)(C)C)C[C@H]2c2ccc(F)cc2F)C[C@H](C)[C@@]1(O)c1ccc(Cl)cc1.Cl [Example 13, (3R,4R,5S)-1-{[(3S,4R)-1-tert-butyl-4-(2,4-difluorophenyl)pyrrolidin-3-yl]carbonyl}-4-(4-chlorophenyl)-3,5-dimethylpiperidin-4-ol hydrochloride]

pEC50 [1]: > 8.00
pEC50 (Table 6, read-out: MCR4 EC50): 8.44
SMILES: C[C@@H]1CN(C(=O)[C@@H]2CN(c3ccccn3)C[C@H]2c2ccc(F)cc2F)C[C@H](C)[C@@]1(O)c1ccccc1.Cl [Example 31, (3R,4R,5S)-1-{[(3S,4R)-4-(2,4-difluorophenyl)-1-pyridin-2-ylpyrrolidin-3-yl]carbonyl}-3,5-dimethyl-4-phenylpiperidin-4-ol hydrochloride]

pEC50 [1]: > 8.00
pEC50 (Table 6, read-out: MCR4 EC50): 8.82
SMILES: C[C@@H]1CN(C(=O)[C@@H]2CN(c3cccnn3)C[C@H]2c2ccc(F)cc2F)C[C@H](C)[C@@]1(O)c1ccccc1.Cl [Example 35, (3R,4R,5S)-1-{[(3S,4R)-4-(2,4-difluorophenyl)-1-pyridazin-3-ylpyrrolidin-3-yl]carbonyl}-3,5-dimethyl-4-phenylpiperidin-4-ol hydrochloride]

Source: patent US7649002B2, “(3,5-dimethylpiperidin-1yl)(4-phenylpyrrolidin-3-yl)methanone derivatives as MCR4 agonists” (Pfizer Inc, priority 2004, dated 2010)
